Format in all cases: biochemical
One assay addresses human PDE6A/6B (Homo sapiens (Human), UniProt P16499+P35913). Briefly: PDE enzyme assay using [3H]cGMP as substrate (radiometric SPA). As to conditions: human PDE6A/6B dimer 5 nM, [3H]cGMP 80 nM; read-out: PDE 6AB IC50. An excerpt: (§1) The nucleotide sequences encoding full-length human PDE1A (NP_001003683.1) and PDE1C (NP_005011.1) are inserted into pFastBac1 (Invitrogen) vector with an N-terminal HIS tag. The nucleotide sequences encoding full-length human PDE4D (NP_006194.2) and catalytic domain (residue 641-1141) of PDE3A (NP_000912.3) are inserted into pFastBac1 (Invitrogen) vector with a C-terminal HIS tag. The nucleotide sequences encoding full-length human PDE6A (NP_000431.2) and PDE6B (AAH00249.1) are inserted into pFastBacDual (Invitrogen) vector with an N-terminal HIS tag and N-terminal Flag tag, respectively, for production of PDE6A/6B dimer. Baculovirus generation and protein expression in Sf9 cells are carried out according to the protocol of Bac-to-Bac Baculovirus Expression system (Invitrogen). The nucleotide sequence encoding full-length human PDE1B (NP_000915.1) is inserted into pIEX4 (Novagen) with a C-terminal HIS tag, and both protein productions in Sf9 cells are carried out according to the vendor's protocol (Novagen). The His tagged PDE proteins are purified using Ni-NTA agarose (Qiagen) followed by size exclusion chromatography on a SUPERDEX® 200 column (GE Healthcare) in storage buffer (20 mM Tris-HCl, pH7.5, 150 mM NaCl, 10% Glycerol). The Flag tagged PDE proteins including PDE6A/6B are purified using anti-Flag M2-agarose (Sigma), after purification through NiNTA column chromatography and eluted in storage buffer (50 mM Tris-HCl, pH7.5, 150 mM NaCl, 10% Glycerol, 0.1 mg/ml Flag peptide). All purified proteins are stored at −80° C. in small aliquots.
(§2) All 3′,5′ cyclic nucleotide phosphodiesterase (PDE) enzyme activities are measured with a radiometric enzyme assay based on SPA detection system (scintillation proximity assay). Compounds to be tested are diluted in pure dimethyl sulfoxide (DMSO) using ten point concentration response curves. Maximal compound concentration in the reaction mixture is either 10 or 100 μM. Compounds at the appropriate concentration are pre-incubated with either of the PDE enzymes for 30 minutes before the reaction is started by the addition of substrate. Reactions are allowed to proceed for 60 minutes at room temperature. Next, reactions are stopped by addition of SPA beads. Samples are read 12 hours later in a MICROBETA™ TRILUX® Counter. “IC50” refers to the concentration of the compound that produces 50% of the maximal inhibitory response possible for that compound. IC50 values are calculated by plotting the normalized data vs. log [compound] and fitting the data using a four parameter logistic equation.
The following phosphodiesterase activities are measured using [^3H]cGMP as reaction substrate: human PDE6A/6B. The catalytic active form of human PDE6 is a dimer composed of a α (human PDE6A) and β subunits (human PDE6B). The dimer of human PDE6A/6B is produced by the coexpression and purification strategy, using two purification steps, i.e., NiNTA and anti-FLAG Sepharose chromatography. The assay buffer is prepared to give a final concentration in the assay of 50 mM Tris-HCl, 8.3 mM MgCl2, 1.7 mM EDTA and 0.1% Bovine serum albumin at pH 7.5. The final enzyme concentration is 5 nM. The reactions are started by addition of the substrate, [^3H]cGMP, to give a final concentration of 80 nM.

Assay [1] concerns the target human PDE3A (catalytic domain) (Homo sapiens (Human), UniProt Q14432). Briefly: PDE enzyme assay using [3H]cAMP as substrate (radiometric SPA). The settings on record: human PDE3A catalytic domain 0.008 nM, [3H]cAMP 47 nM.
From the text: as §1, §2
(§3) The following phosphodiesterase activities are measured using [^3H]cAMP as reaction substrate: human PDE3A (catalytic domain) and human PDE4D. Both enzymes are cloned and purified following standard procedures. The assay buffer is prepared to give a final concentration in the assay of 50 mM Tris-HCl, 8.3 mM MgCl2, 1.7 mM ethylenediaminetetraacetic acid (EDTA) and 0.1% Bovine serum albumin at pH 7.5. Final enzyme concentrations are 0.008 and 0.021 nM for PDE3A and PDE4D, respectively. Reactions are started by addition of the substrate, [^3H]cAMP, to give a final concentration of 47 nM.

Another assay has as its target human PDE4D (Homo sapiens (Human), UniProt Q08499). The description is as above. The settings on record: human PDE4D 0.021 nM, [3H]cAMP 47 nM; read-out: PDE 4D IC50.
From the text: as §1, §2, §3

The next assay concerns the target human PDE1B (Homo sapiens (Human), UniProt Q01064). The experiment in a line: Ca2+-calmodulin dependent PDE enzyme assay (radiometric SPA, [3H]cAMP). As to conditions: human PDE1B 0.074 nM, [3H]cAMP 47 nM; read-out: PDE 1B IC50.
From the text: as §1, §2
(§4) PDE1B, PDE1A, and PDE1C are cloned and purified following standard protein generation procedures. The assay buffer is prepared to give a final concentration in the assay of 50 mM Tris-HCl, 50 mM MgCl2, 4 mM CaCl2, 0.1% Bovine serum albumin and 6 U/ml Calmodulin in water, at pH 7.5. The final enzyme concentration is 0.25, 0.074 and 0.0012 nM, for PDE1A, PDE1B and PDE1C respectively. The reactions are started by addition of the substrate, [^3H]cAMP, to give a final concentration of 47 nM.

The target of another assay is human PDE1C (Homo sapiens (Human), UniProt Q14123). The assay is described as above. As to conditions: human PDE1C 0.0012 nM, [3H]cAMP 47 nM; read-out: PDE 1C IC50.
From the text: as §1, §2, §4

The target in the next assay is human PDE1A (Homo sapiens (Human), UniProt P54750). The description is as above. The settings on record: human PDE1A 0.25 nM, [3H]cAMP 47 nM; read-out: PDE 1A IC50.
From the text: as §1, §2, §4

In general, IC50 refers to the concentration that gives 50% inhibition.

human PDE6A/6B, sequence (P16499 whole entry, stated change not applied, the tested form may be a part): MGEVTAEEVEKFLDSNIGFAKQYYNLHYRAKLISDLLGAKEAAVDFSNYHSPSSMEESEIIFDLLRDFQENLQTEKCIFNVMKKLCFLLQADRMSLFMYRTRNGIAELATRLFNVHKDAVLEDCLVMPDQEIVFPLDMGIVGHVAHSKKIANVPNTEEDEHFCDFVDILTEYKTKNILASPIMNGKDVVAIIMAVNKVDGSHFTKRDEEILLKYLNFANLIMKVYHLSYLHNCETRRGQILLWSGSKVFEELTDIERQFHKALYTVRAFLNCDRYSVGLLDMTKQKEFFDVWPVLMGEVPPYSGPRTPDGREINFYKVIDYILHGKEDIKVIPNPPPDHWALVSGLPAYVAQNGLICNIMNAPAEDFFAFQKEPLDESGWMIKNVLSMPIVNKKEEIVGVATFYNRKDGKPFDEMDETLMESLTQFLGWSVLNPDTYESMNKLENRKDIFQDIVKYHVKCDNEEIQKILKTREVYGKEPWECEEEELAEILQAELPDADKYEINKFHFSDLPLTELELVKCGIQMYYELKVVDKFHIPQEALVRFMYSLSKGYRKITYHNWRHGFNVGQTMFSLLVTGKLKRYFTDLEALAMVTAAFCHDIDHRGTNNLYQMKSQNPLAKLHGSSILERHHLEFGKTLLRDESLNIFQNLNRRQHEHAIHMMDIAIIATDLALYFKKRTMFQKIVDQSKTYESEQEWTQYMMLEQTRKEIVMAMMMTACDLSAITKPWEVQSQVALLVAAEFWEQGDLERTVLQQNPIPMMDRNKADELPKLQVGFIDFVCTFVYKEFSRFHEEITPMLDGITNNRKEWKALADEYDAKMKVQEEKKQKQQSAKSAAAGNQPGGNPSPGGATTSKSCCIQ
human PDE6A/6B, sequence (P35913 other isoform, or with tags, fused parts or gaps isoform P35913-2): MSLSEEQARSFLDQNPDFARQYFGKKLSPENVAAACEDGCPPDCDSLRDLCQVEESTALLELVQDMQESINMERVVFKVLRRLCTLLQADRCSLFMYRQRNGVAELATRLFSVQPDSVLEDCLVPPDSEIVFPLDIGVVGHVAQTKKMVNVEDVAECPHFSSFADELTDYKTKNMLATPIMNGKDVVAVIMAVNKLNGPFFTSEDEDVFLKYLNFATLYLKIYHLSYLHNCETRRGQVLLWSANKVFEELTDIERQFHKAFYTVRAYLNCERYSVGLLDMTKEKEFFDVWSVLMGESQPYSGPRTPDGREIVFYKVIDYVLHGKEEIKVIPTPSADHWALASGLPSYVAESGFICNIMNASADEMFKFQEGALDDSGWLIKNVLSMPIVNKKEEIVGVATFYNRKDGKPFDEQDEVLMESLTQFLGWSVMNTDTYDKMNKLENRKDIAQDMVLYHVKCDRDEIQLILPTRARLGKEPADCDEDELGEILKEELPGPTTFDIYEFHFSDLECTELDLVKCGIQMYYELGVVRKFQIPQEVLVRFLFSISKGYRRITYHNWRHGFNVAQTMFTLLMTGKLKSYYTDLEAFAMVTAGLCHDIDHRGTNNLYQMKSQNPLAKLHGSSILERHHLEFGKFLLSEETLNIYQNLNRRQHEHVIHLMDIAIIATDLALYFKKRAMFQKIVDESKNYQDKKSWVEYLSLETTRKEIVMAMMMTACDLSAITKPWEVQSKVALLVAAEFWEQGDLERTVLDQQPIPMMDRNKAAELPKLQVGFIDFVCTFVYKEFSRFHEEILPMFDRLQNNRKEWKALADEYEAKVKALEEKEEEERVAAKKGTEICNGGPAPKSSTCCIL
human PDE3A (catalytic domain), sequence (Q14432 641-1141): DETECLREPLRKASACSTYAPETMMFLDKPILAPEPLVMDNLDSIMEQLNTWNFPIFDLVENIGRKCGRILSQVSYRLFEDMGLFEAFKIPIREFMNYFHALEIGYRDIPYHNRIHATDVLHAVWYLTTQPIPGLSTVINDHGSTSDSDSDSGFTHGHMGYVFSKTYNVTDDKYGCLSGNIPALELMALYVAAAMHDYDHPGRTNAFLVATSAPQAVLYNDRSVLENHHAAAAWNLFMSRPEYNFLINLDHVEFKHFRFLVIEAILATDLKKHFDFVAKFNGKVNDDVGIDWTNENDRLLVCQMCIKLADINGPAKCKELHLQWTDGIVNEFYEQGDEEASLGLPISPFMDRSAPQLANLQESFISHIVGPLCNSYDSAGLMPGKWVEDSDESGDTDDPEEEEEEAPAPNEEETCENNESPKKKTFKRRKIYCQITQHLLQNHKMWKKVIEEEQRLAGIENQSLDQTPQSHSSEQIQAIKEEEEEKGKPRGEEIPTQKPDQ
human PDE4D, sequence (Q08499 other isoform, or with tags, fused parts or gaps): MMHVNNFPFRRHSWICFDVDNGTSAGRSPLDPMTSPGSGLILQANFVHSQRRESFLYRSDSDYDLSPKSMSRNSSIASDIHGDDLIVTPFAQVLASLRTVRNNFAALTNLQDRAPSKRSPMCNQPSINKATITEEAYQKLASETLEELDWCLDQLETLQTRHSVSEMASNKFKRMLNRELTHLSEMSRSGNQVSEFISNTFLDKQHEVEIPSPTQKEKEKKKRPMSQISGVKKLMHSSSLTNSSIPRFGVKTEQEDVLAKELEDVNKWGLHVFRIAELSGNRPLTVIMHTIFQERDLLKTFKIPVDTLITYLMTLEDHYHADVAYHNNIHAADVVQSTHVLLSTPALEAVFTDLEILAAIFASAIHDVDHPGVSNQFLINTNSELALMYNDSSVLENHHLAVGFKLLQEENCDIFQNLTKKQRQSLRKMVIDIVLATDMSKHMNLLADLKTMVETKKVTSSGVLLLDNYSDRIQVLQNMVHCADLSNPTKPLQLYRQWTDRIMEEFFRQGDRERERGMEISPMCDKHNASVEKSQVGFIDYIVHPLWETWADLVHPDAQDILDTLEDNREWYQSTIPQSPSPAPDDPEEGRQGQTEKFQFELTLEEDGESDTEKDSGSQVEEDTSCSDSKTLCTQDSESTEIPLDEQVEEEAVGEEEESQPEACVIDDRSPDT

As to `CCC(Cn1c(=O)c2nnc(C3(C4CC4)CC3)n2c2ncccc21)OC` (racemic) [Example 4, rac-9-([1,1′-Bi(cyclopropan)]-1-yl)-5-(2-methoxybutyl)-pyrido[3,2-e][1,2,4]triazolo[4,3-a]pyrazin-6(5H)-one], the IC50 is more than 10000 nM on human PDE6A/6B; more than 100000 nM in assay [1]; 33600 nM at human PDE4D; 33.5 ± 6.26 nM on human PDE1B; 0.609 ± 0.128 nM on human PDE1C; 13.9 ± 2.06 nM at human PDE1A.
With `CCC(Cn1c(=O)c2nnc(C3(C4CC4)CC3)n2c2ncccc21)OC` (single isomer, unassigned) [Example 4a, 9-([1,1′-bi(cyclopropan)]-1-yl)-5-(2-methoxybutyl)pyrido[3,2-e][1,2,4]triazolo[4,3-a]pyrazin-6(5H)-one], the IC50 is more than 10000 nM at human PDE6A/6B; more than 100000 nM in assay [1]; more than 100000 nM on human PDE4D; 40.1 nM at human PDE1B; 1.49 nM at human PDE1C; 26.8 nM at human PDE1A.
In the case of `CCC(Cn1c(=O)c2nnc(C3(C4CC4)CC3)n2c2ncccc21)OC` (single isomer, unassigned) [Example 4b, 9-([1,1′-bi(cyclopropan)]-1-yl)-5-(2-methoxybutyl)pyrido[3,2-e][1,2,4]triazolo[4,3-a]pyrazin-6(5H)-one], the IC50 on human PDE4D is more than 100000 nM; on human PDE1B, 25.8 ± 0.614 nM; on human PDE1C it was 1.46 ± 0.642 nM; at human PDE1A, 15.1 ± 2.84 nM.
Take `CCCCn1c(=O)c2nnc(C3(C4CC4)CC3)n2c2ncc(C)cc21` [Example 1, 9-([1,1′-bi(cyclopropan)]-1-yl)-5-butyl-3-methylpyrido[3,2-e][1,2,4]triazolo[4,3-a]pyrazin-6(5H)-one]: the concentration for half-maximal inhibition (IC50) was not below 3450 nM on human PDE6A/6B; more than 50000 nM in assay [1]; 1590 ± 217 nM at human PDE4D; 0.406 ± 1.08 nM on human PDE1B; less than 0.508 nM on human PDE1C; 0.366 ± 0.765 nM on human PDE1A.
Consider `CCCCn1c(=O)c2nnc(C3(C(F)(F)F)CC3)n2c2ncc(C)cc21` [Example 2, 5-Butyl-3-methyl-9-(1-(trifluoromethyl)cyclopropyl)pyrido[3,2-e][1,2,4]triazolo[4,3-a]pyrazin-6(5H)-one], for which the IC50 on human PDE6A/6B was more than 10000 nM; in assay [1], more than 100000 nM; at human PDE4D it was 26000 nM; at human PDE1B, 12.1 ± 1.06 nM; at human PDE1C, 1.62 ± 0.231 nM; on human PDE1A it was 8.62 ± 2.53 nM.
Take `CCCn1c(=O)c2nnc(C3(C4CC4)CC3)n2c2ncc(C)cc21` [Example 3, 9-([1,1′-Bi(cyclopropan)]-1-yl)-3-methyl-5-propylpyrido[3,2-e][1,2,4]triazolo[4,3-a]pyrazin-6(5H)-one]: the IC50 on human PDE6A/6B is more than 10000 nM; in assay [1], more than 100000 nM; on human PDE4D, 2120 nM; at human PDE1B, 3.41 ± 1.52 nM; on human PDE1C, 2.77 ± 0.636 nM; on human PDE1A, 2.59 ± 1.69 nM.
On to `O=c1c2nnc(C3(C4CC4)CC3)n2c2nc(O)ccc2n1CC1CC1` [Example 5, 9-([1,1′-bi(cylopropan)]-1-yl)-5-(cyclopropylmethyl)-2-hydroxypyrido[3,2-e][1,2,4]triazolo[4,3-a]pyrazin-6(5H)-one], for which the half-maximal inhibitory concentration (IC50) on human PDE6A/6B is more than 10000 nM; in assay [1] it was 22900 ± 1140 nM; at human PDE4D, 14700 ± 8240 nM; on human PDE1B, 2.41 ± 0.846 nM; on human PDE1C it was 0.931 ± 0.132 nM; on human PDE1A, 2.75 ± 2.11 nM.
Regarding `CCCCn1c(=O)c2nnc(C3(C4CC4)CC3)n2c2ncc(CC)cc21` [Example 9, 9-([1,1′-Bi(cyclopropan)]-1-yl)-5-butyl-3-ethylpyrido[3,2-e][1,2,4]triazolo[4,3-a]pyrazin-6(5H)-one], the IC50 at human PDE4D is 675 nM; on human PDE1C it was less than 0.5 nM.
On the same counts, the results for `CCCCn1c(=O)c2nnc(C3(C4CC4)CC3)n2c2ncc(CO)cc21` [Example 11] are 5560 nM and less than 0.5 nM.

The record behind these values is patent publication US11180503B2, “[1,2,4]Triazolo[4,3-A]pyrazin-6(5H)-one derivatives” (Eli Lilly and Company, priority 2017, dated 2021).
